From ChEMBL document CHEMBL4837190, “Targeted Isolation of Hemitheion from Mostuea brunonis, a Proposed Biosynthetic Intermediate of Theionbrunonines” (J Nat Prod, 2021)

Tests used:
Plasmodium falciparum = assay: Antiplasmodial activity against chloroquine-resistant Plasmodium falciparum FcB1/Colombia infected in human red blood cells assessed as reduction in [3H]-hypoxanthine incorporation measured after 24 hrs liquid scintillation counting method; type: functional, organism-based, RBC; settings: Erythrocyte
MRC5 = assay: Cytotoxicity against human MRC5 cells assessed as growth inhibition measured after 72 hrs by MTS assay; type: cell-based; settings: MRC5, 72 h

Row | Compound | IC50 (Plasmodium falciparum) [µM] | IC50 (MRC5) [µM]
1 | C/C=C1/CN(C)[C@@H]2Cc3c([nH]c4ccccc34)C(=O)C[C@H]1[C@H]2C(=O)OC | 22.5 | > 50
2 | CC[C@H]1N[C@H]2C[C@@]3(C(=O)N(OC)c4cc(OC)ccc43)[C@@H]3C[C@@H]1[C@@H]2CO3 | 59.5 | > 50
3 | CC[C@H]1N[C@H]2C[C@@]3(C(=O)N(OC)c4ccccc43)[C@@H]3C[C@@H]1[C@@H]2CO3 | 42.5 | > 50
4 | C/C=C1/CN(C)[C@@H]2Cc3c([nH]c4ccccc34)[C@@H](S)C[C@H]1[C@H]2C(=O)OC | 1.05 | > 50
